Data published in ChEMBL document CHEMBL1201862, “PubChem BioAssay data set” (2004).
Activity calls are given as the source filed them. For most assays here, no stated cut-off is given here; in the data, actives have a measured EC50 and inactives only a lower limit.

target: T1, Streptokinase A (Streptococcus pyogenes serotype M1, UniProt P10520); assay: S. pyogenes streptokinase expression inhibitors, potency, dose response, plasminogen activation absorbance, OD405 (AID 1914); type: functional, Streptococcus pyogenes M1 GAS; settings: not given;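 further: secreted streptokinase activity via plasminogen activation per viability signal from cell pellet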
T1 sequence (P10520 whole entry): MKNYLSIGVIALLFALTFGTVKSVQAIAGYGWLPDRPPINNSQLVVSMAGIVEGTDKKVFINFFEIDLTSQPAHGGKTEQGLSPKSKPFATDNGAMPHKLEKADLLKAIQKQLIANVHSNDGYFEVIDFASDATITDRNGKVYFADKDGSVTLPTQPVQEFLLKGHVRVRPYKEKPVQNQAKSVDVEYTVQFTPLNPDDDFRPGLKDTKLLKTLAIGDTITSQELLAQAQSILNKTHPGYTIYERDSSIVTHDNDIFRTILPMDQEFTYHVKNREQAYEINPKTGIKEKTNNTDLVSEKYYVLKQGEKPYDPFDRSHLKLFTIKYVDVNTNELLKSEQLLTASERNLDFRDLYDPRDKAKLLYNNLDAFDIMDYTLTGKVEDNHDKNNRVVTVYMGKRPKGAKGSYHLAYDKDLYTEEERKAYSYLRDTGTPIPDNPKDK

| Structure (SMILES) | EC50 |
| --- | --- |
| CCCC1=NN2C(=N)/C(=C\c3cc(C)n(-c4cc(C)cc(C)c4)c3C)C(=O)N=C2S1 | 5.85 µM (active) |

target: Luciferin 4-monooxygenase (Photinus pyralis, UniProt P08659); assay: firefly luciferase enzyme inhibitors, dose response, biochemical, luminescence (AID 1891); settings: not given
Sequence (P08659 whole entry): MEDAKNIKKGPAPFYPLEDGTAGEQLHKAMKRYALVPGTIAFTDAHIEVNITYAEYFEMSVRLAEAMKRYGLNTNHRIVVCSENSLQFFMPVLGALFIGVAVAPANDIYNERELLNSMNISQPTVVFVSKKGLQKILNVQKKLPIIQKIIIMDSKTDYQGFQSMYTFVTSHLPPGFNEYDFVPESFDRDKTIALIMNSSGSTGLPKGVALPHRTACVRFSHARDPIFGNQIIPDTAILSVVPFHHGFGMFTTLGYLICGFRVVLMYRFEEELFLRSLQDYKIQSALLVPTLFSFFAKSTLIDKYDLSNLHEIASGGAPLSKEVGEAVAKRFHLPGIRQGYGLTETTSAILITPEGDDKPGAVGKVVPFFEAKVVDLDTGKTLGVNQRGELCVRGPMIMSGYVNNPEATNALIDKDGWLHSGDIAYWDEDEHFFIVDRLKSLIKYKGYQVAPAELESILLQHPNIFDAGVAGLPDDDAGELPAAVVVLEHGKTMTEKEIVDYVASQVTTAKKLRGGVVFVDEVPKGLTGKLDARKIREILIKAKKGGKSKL

| Structure (SMILES) | EC50 |
| --- | --- |
| COc1ccc(NC(=O)CSc2ccccn2)c([N+](=O)[O-])c1 | > 112 µM (not active) |
| CCOC(=O)c1c(C)[nH]c(C)c1S(=O)(=O)NCC(=O)Nc1ccccn1 | > 112 µM (not active) |
| CCCCNCCOCCOc1ccc(F)cc1 | > 112 µM (not active) |
| COc1ccc(-n2c(C)c(C(C)=O)c(C(C)=O)c2C)cc1OC | > 112 µM (not active) |
| CCCC(=O)C1=C(N2CCCC2)CC(C)(C)C(C(=O)OC)C1=O (stereo not given) | > 112 µM (not active) |
| COc1ccc(CSc2ncnc3sccc23)cc1F | > 112 µM (not active) |
| COc1ccccc1NC(=O)CSc1nc(O)c2c(C)cc(C)nc2n1 | > 112 µM (not active) |
| O=C(O)C1C2C=CC(O2)C1C(=O)NCCCn1ccnc1 (stereo not given) | > 112 µM (not active) |
| O=C(c1ccco1)N1CCCN(Cc2nc(-c3cccs3)no2)CC1 | > 112 µM (not active) |
| CSc1ccc(/C=C(/NC(=O)c2ccco2)C(=O)N2CCCCC2)cc1 | > 112 µM (not active) |
| N=C(NOC(=O)c1ccc2ccccc2c1)c1ccccn1 | 0.596 µM (active) |

target: Paired box protein Pax-8 (Homo sapiens, UniProt Q06710); assay: inhibitors of PAX8-driven TPO luciferase reporter, dose response, RMG-I cells, cherry-pick (AID 687027); type: functional, cell-based; settings: not given;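 further: luciferase reporter driven by Pax8 target thyroperoxidase promoter measured by SteadyGlo luminescence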
Sequence (Q06710 whole entry): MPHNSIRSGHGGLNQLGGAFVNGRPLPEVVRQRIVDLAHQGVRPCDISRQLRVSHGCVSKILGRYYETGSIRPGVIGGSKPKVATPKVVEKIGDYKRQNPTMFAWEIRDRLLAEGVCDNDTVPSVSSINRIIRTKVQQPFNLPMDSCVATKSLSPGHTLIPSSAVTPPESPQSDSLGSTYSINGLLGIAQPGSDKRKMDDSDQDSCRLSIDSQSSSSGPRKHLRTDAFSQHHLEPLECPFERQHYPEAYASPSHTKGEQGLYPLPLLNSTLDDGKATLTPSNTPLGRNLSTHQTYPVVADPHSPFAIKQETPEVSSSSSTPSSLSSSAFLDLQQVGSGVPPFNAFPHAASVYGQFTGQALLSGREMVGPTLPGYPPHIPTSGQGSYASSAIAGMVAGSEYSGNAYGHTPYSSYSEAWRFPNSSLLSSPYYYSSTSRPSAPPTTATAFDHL

| Structure (SMILES) | AC50 |
| --- | --- |
| Cc1ccc(S(=O)(=O)Nc2ccc3c(c2)C(=O)N([C@@H](C)CO)C[C@@H](C)[C@@H](CN(C)Cc2ccc(C(F)(F)F)cc2)OCCCC[C@H](C)O3)cc1 | 9.16 µM (active) |
| C[C@@H]1CN([C@@H](C)CO)C(=O)Cc2cc(NC(=O)Nc3ccc(F)cc3)ccc2O[C@H]1CN(C)Cc1ccc(Cl)c(Cl)c1 | 5.72 µM (active) |

system: not listed separately; assay: inhibitors of clade B AD8 Env fusion, dose response, cell-based, cherry-pick (AID 652062); type: functional; settings: not given;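 further: luciferase signal from cell-cell fusion driven by HIV-1 clade B AD8 Env; potency is for inhibitors of fusion seen as a drop in luminescence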

| Structure (SMILES) | AC50 |
| --- | --- |
| C[C@H](CO)N1C[C@H](C)[C@H](CN(C)S(=O)(=O)c2ccc(F)cc2)Oc2ccc(NC(=O)Nc3cccc4ccccc34)cc2CC1=O | 1.27 µM (active) |

system: Streptococcus sp. 'group A'; assay: growth inhibition of control SK(-) GAS strain, dose response, counter-screen for streptokinase expression inhibitor project, luminescence, kanamycin, BacTiterGlo, confirmation (AID 1900); type: functional, organism-based; settings: not given

| Structure (SMILES) | EC50 |
| --- | --- |
| CCCC1=NN2C(=N)/C(=C\c3cc(C)n(-c4cc(C)cc(C)c4)c3C)C(=O)N=C2S1 | 1.63 µM (active) |

system: not listed separately; assay: ZM109 Env clade C HIV-1 fusion inhibitors, dose response, HeLa effector, CEM target cells, luciferase, cherry-pick (AID 652058); type: functional, cell-based; settings: not given

| Structure (SMILES) | AC50 |
| --- | --- |
| C[C@H](CO)N1C[C@H](C)[C@H](CN(C)S(=O)(=O)c2ccc(F)cc2)Oc2ccc(NC(=O)Nc3cccc4ccccc34)cc2CC1=O | 0.483 µM (active) |

target: T2, Heat shock factor protein 1 (Mus musculus, UniProt P38532); assay: inhibition of MG132-induced HSE-luciferase signal, confirmation, cell-based, NIH3T3, luminescence, dose retest (AID 2382); type: functional; settings: not given;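 further: NIH3T3 fibroblasts with HSF1-driven luciferase reporter stressed by proteasome inhibitor MG132; luminescence from HSF1-driven luciferase expression after 8 hours of MG132 stress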
T2 sequence (P38532 whole entry): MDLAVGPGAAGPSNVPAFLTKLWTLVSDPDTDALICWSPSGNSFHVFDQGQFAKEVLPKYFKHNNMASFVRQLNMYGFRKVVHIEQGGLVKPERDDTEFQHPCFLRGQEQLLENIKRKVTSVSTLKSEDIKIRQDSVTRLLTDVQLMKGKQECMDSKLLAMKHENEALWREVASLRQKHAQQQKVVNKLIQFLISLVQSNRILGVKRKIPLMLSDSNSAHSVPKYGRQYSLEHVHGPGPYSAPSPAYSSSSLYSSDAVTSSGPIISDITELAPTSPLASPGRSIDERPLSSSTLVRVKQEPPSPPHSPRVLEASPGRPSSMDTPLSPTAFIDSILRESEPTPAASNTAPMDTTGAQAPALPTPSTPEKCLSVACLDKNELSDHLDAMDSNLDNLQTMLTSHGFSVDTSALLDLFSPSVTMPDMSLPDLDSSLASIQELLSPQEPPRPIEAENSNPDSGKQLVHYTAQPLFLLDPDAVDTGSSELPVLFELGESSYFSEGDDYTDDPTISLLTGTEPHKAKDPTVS

| Structure (SMILES) | EC50 |
| --- | --- |
| CC(C)C(=O)Nc1ccc(C(=O)N2CCN(C(=O)c3ccco3)CC2)cc1 | > 195 µM (not active) |
| COc1ccc(C(=O)Nc2ccc3c(c2)nc(CN2CCCC2)n3C)cc1 | > 195 µM (not active) |

system: not listed separately; assay: Luminescence Cell-Based Dose Confirmation HTS to Identify Inhibitors of Platelet Dense Granule Release. [Related pubchem assays: 1663 (Primary HTS), 1678 (Summary of Project)]; type: functional; settings: not given

| Structure (SMILES) | EC50 |
| --- | --- |
| COc1ccc(NC(=O)CSc2ccccn2)c([N+](=O)[O-])c1 | > 112 µM (not active) |
| CCOC(=O)c1c(C)[nH]c(C)c1S(=O)(=O)NCC(=O)Nc1ccccn1 | > 112 µM (not active) |
| CCCCNCCOCCOc1ccc(F)cc1 | > 112 µM (not active) |
| COc1ccc(-n2c(C)c(C(C)=O)c(C(C)=O)c2C)cc1OC | > 112 µM (not active) |
| CCCC(=O)C1=C(N2CCCC2)CC(C)(C)C(C(=O)OC)C1=O (stereo not given) | > 112 µM (not active) |
| COc1ccc(CSc2ncnc3sccc23)cc1F | > 112 µM (not active) |
| COc1ccccc1NC(=O)CSc1nc(O)c2c(C)cc(C)nc2n1 | > 112 µM (not active) |
| O=C(O)C1C2C=CC(O2)C1C(=O)NCCCn1ccnc1 (stereo not given) | > 112 µM (not active) |
| O=C(c1ccco1)N1CCCN(Cc2nc(-c3cccs3)no2)CC1 | 25 µM (active) |
| CSc1ccc(/C=C(/NC(=O)c2ccco2)C(=O)N2CCCCC2)cc1 | 17.5 µM (active) |
| N=C(NOC(=O)c1ccc2ccccc2c1)c1ccccn1 | 1.53 µM (active) |

system: not listed separately; assay: inhibitors of HIV Env-driven cell fusion, dose response, cherry-pick (AID 652057); type: functional, cell-based; settings: not given

| Structure (SMILES) | AC50 |
| --- | --- |
| C[C@H](CO)N1C[C@H](C)[C@H](CN(C)S(=O)(=O)c2ccc(F)cc2)Oc2ccc(NC(=O)Nc3cccc4ccccc34)cc2CC1=O | < 0.26 µM (active) |

target: T3, Calpain-2 catalytic subunit (Sus scrofa, UniProt P43367); assay: pig calpain II inhibitor potency, dose response, biochemical, fluorogenic peptide substrate (AID 1420); type: functional; settings: not given
T3 sequence (P43367 whole entry): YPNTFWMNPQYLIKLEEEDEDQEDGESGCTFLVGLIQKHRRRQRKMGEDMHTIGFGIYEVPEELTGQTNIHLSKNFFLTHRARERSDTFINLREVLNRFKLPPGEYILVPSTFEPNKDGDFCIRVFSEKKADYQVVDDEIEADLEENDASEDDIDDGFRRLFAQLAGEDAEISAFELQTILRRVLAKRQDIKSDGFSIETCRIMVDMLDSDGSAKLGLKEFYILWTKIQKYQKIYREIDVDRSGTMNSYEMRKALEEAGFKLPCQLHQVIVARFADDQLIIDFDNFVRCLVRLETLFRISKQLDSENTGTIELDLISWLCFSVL

| Structure (SMILES) | IC50 |
| --- | --- |
| O=C(NCCc1csc(-c2cccnc2)n1)c1ccc(Br)o1 | < 0.4 µM (not active) |
| Cc1ccc(CNC(=O)CN=C(S)N(Cc2ccccc2)Cc2ccccc2F)cc1 | 5.45 µM (not active) |

system: Streptococcus; assay: Group A Streptococcus viability loss, dose response, counter-screen for streptokinase expression inhibitor project, luminescence, BacTiterGlo (AID 1915); type: functional, organism-based; settings: not given;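 further: potency for reduction of bacterial viability or growth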

| Structure (SMILES) | EC50 |
| --- | --- |
| CCCC1=NN2C(=N)/C(=C\c3cc(C)n(-c4cc(C)cc(C)c4)c3C)C(=O)N=C2S1 | 18.7 µM (active) |

target: T4, Corticotropin-releasing factor receptor 2/Corticotropin-releasing factor-binding protein (Homo sapiens, UniProt P24387+Q13324); assay: activators of CRF receptor 2 with binding protein – uHTS hits, confirmation (AID 602473); type: functional; settings: read-out: EC50_Mean
T4 sequence (Q13324 whole entry): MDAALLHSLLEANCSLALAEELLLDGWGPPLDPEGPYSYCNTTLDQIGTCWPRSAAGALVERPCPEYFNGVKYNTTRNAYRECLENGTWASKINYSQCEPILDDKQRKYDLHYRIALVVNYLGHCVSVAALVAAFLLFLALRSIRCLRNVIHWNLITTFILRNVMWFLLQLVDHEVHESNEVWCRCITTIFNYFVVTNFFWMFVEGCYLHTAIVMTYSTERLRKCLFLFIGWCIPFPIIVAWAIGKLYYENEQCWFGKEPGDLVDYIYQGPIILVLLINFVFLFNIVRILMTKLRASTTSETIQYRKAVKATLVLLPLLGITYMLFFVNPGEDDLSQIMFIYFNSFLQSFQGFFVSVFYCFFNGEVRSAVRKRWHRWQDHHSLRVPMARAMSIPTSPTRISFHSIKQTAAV
T4 sequence (P24387 whole entry): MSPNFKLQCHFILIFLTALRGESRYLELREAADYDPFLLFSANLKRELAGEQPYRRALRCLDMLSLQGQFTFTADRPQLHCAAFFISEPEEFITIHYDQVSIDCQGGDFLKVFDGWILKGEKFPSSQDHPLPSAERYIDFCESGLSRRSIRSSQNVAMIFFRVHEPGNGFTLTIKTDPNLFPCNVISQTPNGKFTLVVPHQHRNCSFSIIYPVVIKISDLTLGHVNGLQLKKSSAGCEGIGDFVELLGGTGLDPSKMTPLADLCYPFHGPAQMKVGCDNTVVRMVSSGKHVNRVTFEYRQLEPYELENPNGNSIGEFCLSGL

| Structure (SMILES) | EC50 |
| --- | --- |
| CCCC1=NN2C(=N)/C(=C\c3cc(C)n(-c4cc(C)cc(C)c4)c3C)C(=O)N=C2S1 | 9.04 µM (active) |
